Measurements as given in US11666640B2, “Glucose oxidase compositions as a neonate anticonvulsant” (PENN STATE RESEARCH FOUNDATION, priority 2018, dated 2023).
“Also recorded” adds a separate entry of the source.

Tests used:
hippocampal slices = assay: Field potential recording of epileptiform activity in hippocampal slices (CA3 pyramidal layer); type: cell-based, mouse
[1] = system: KA induced neonatal seizure; assay: KA-induced neonatal seizure, in vivo EEG recording; conditions: NaGcA 2 g/kg i.p. about 1 hr after KA, P10-12 rat; sodium salt
[2] = system: GABAA-R reversal potential (EGABA); assay: Gramicidin-perforated whole-cell recording of GABAA-R reversal potential (EGABA) in CA3 pyramidal neurons; type: cell-based, mouse
Protocol: To further test this idea, the GABAA-R reversal potential (EGABA), which governs GABA excitatory versus inhibitory function, was directly measured using gramicidin-perforated whole-cell recordings in neonatal mouse brain slices (e.g., P8-P9). As expected, epileptiform activity induced a large depolarizing shift in EGABA after treating hippocampal slices with 0 Mg^2+ aCSF for 1 h (aCSF: −59.2±2.0 mV, n=13; 0 Mg^2+: −48.2±1.1 mV, n=10). FIG. 16D. Treatment with bumetanide (Bum, 10 μM), a specific blocker for NKCC1 at low concentrations, induced a hyperpolarizing shift in EGABA (blue line) as compared to a control EGABA (dashed line). […]. […] Kaila et al., “Cation-chloride cotransporters in neuronal development, plasticity and disease” Nature Reviews. Neuroscience 15:637-654 (2014); Dzhala et al., “NKCC1 transporter facilitates seizures in the developing brain” Nature Medicine 11:1205-1213 (2005); and Loscher et al., “Cation-chloride cotransporters NKCC1 and KCC2 as potential targets for novel antiepileptic and antiepileptogenic treatments” Neuropharmacology 69:62-74 (2013). […] FIG. 16E, yellow line; Bum, −68.0±1.7 mV (n=9); 0 Mg^2++Bum, −50.2±1.4 mV (n=9); (p<0.002).

[3] = system: GABA-induced neuronal activity; assay: Cell-attached recording of spike firing elicited by isoguvacine in CA3 pyramidal neurons; type: cell-based, mouse; conditions: P8-9, isoguvacine 10 μM, 30 s
Protocol: Besides EGABA, the effects of different drugs on GABA-induced neuronal activity during epileptogenesis were investigated in neonatal animals (e.g., P8-9). To accurately measure GABA-induced neuronal activity, cell-attached recordings monitored spike firing elicited by local application of the GABAA-R agonist isoguvacine (10 μM, 30 s). Tyzio et al., “Maternal oxytocin triggers a transient inhibitory switch in GABA signaling in the fetal brain during delivery” Science 314:1788-1792 (2006). […] FIG. 16K, control, (n=32). […] FIG. 16K, 0 Mg^2+ (n=19). […] FIG. 16K; 0 Mg^2++Bum (n=19); and 0 Mg^2++VU (n=21). […] FIG. 16K; 0 Mg^2++NaGcA (n=18).

Cl− channels = assay: Cl− current recording in cultured cortical neurons; type: cell-based, mouse; conditions: 10 mM NaGcA
[4] = system: KA-induced epileptic burst activities; assay: KA-induced epileptic burst activity in adult mice, EEG recording; type: in vivo, mouse; conditions: KA 10 mg/kg i.p., NaGcA 2 g/kg i.p., sodium salt
Protocol: To test the in vivo anti-epilepsy effects of gluconate in neonatal and adult rodents, P8-12 Sprague-Dawley rats or 2-month old male C57BL/6 mice were deeply anesthetized with pentobarbital sodium (50 mg/kg for neonatal rat and 100 mg/kg for adult mice, intraperitoneal injection). Two stainless steel screws (1 mm in diameter) were inserted in the skull above the cortex as EEG recording electrodes, one ground electrode as well as one reference electrode were located +1.8 mm anterior to bregma, ±0.5 mm lateral to the midline, and 1 mm below the cortical surface. All electrodes were attached to a micro-connector and fixed onto the skull with dental cement. After surgery, neonatal rats were returned to their mothers and allowed to recover for 2 days prior to subsequent EEG recording. The adult mice were single housed in order to prevent damage of the implanted electrodes and allowed to recover at least 5 days before EEG recording.

[5] = system: cultured cortical neurons; assay: Epileptiform burst activity in cultured cortical neurons (whole-cell patch-clamp); type: cell-based, mouse
Protocol: Mouse cortical neurons were prepared from newborn C57BL/6 mice as previously described. Qi et al., “Cyclothiazide induces robust epileptiform activity in rat hippocampal neurons both in vitro and in vivo” The Journal Of Physiology 571:605-618 (2006). Briefly, the newborn mouse cerebral cortices were dissected out in ice-cold HEPES-buffered saline solution, washed and digested with 0.05% trypsin-EDTA at 37° C. for 20 min. After deactivation of trypsin with serum-containing medium, cells were centrifuged, resuspended, and seeded on a monolayer of cortical astrocytes at a density of 10,000 cells/cm^2 in 24-well plates. The neuronal culture medium contained MEM (500 ml, Invitrogen), 5% fetal bovine serum (Atlanta Biologicals), 10 ml B-27 supplement (Invitrogen), 100 mg NaHCO3, 2 mM Glutamax (Invitrogen), and 25 units/ml penicillin & streptomycin. AraC (4 μM, Sigma) was added to inhibit the excessive proliferation of astrocytes. Cell cultures were maintained in a 5% CO2-humidified incubator at 37° C. for 14-21 days.
The cultured neurons were placed in the recording chamber with continuous perfusion of the bath solution consisting of (mM): 128 NaCl, 10 Glucose, 25 HEPES, 5 KCl, 2 CaCl2, 1 MgSO4, pH 7.3 adjusted with NaOH, and osmolarity ˜300 mOsm. For recording spontaneous firing under current clamp mode, pipettes were filled with an internal solution containing (in mM): 125 K-gluconate, 5 Na-phosphocreatine, 5 EGTA, 10 KCl, 10 HEPES, 4 Mg-ATP, 0.3 Na-GTP, 280-290 mOsm, pH 7.3 adjusted with KOH. Epileptiform activity in cultured neurons was induced either by 10 μM CTZ for 24 h, or 1 μM KA for 2 h, or 50 μM 4-AP for 2 h. The burst activity was defined as previously described. Qi et al., “Cyclothiazide induces robust epileptiform activity in rat hippocampal neurons both in vitro and in vivo” The Journal Of Physiology 571:605-618 (2006). In brief, at least five consecutive action potentials overlaying on top of the large depolarization shift (≥10 mV depolarization and ≥300 ms in duration).

[6] = 0 Mg2+ aCSF, WT slices P8-12 pre-treated with 20 mM NaGcA

`O=C([O-])[C@H](O)[C@@H](O)[C@H](O)[C@H](O)CO.[Na+]` [NaGcA, D-gluconic acid sodium salt] was tested, and the “reduction of average power of epileptic activity” value (shortened to “reduction … of epileptic activity”) (hippocampal slices; 0 Mg2+ aCSF, 20 mM NaGcA, P6-8) was 59.6±4.3%, the “reduction … of epileptic activity” value (hippocampal slices; 0 Mg2+ aCSF, 20 mM NaGcA, P10-12) was 62.1±3.8% and the “reduction … of epileptic activity” value (hippocampal slices; 0 Mg2+ aCSF, 20 mM NaGcA, P21-33) was 23.8±4.1%. The burst latency (hippocampal slices; [6]) was “significantly prolonged”, the total burst activity (hippocampal slices; [6]) was “significantly reduced” and the “epileptic activity induced by 4-AP” value (hippocampal slices; 50 μM 4-AP, neonatal slices, 20 mM NaGcA, sodium salt) was “significantly reduced; also recorded: attenuated”. The “epileptiform activity induced by 0 Mg2+ aCSF, neonatal slices” value (hippocampal slices; 20 mM NaGcA, P6-12, sodium salt) was “strong inhibition; also recorded: strong efficacy; also recorded: dramatically reduced; also recorded: potent anti-epileptic effect; also recorded: inhibited”, the “epileptiform activity induced by 0 Mg2+ aCSF, older animals” value (hippocampal slices; 20 mM NaGcA, P21-33 (P26), sodium salt) was “modest effect; also recorded: much less inhibition; also recorded: much smaller; also recorded: moderate anti-epileptic discharges effect; also recorded: less effect” and the “reduction of the power amplitude” value (hippocampal slices; 4-AP (50 μM) model, neonatal slices, 20 mM NaGcA) was 70.2±5.3%. For the same compound, the “reduction of the power amplitude” value (hippocampal slices; high K+ (8.5 mM) model, neonatal slices, 20 mM NaGcA) was 70.8±4.9%, the “epileptic burst activity in high K+ model” value (hippocampal slices; high K+ aCSF (8.5 mM), neonatal slices, 20 mM NaGcA, sodium salt) was “remarkably suppressed; also recorded: blocked; also recorded: dramatically reduced” and the “stable epileptic activity induced by KA (acute effect)” value [1] was “gradually reduced; also recorded: significantly reduced; also recorded: still suppressed seizure activity”. The “EGABA in 0 Mg2+ aCSF in CLC-3 KO mice” value ([2]; CLC-3 KO mice, application of NaGcA) was −56.6±2.4 mV, the “positive EGABA shift induced by 0 Mg2+ aCSF” value ([2]; neonatal CA3 neurons) was “completely abolishes” and the “EGABA in 0 Mg2+ aCSF” value ([2]; neonatal P8-P9, 0 Mg2+ aCSF, bumetanide 10 μM, VU0240551 10 μM, NaGcA 20 mM) was −59.3±1.7 mV. The “EGABA in normal aCSF” value ([2]; neonatal P8-P9, bumetanide 10 μM, VU0240551 10 μM, NaGcA 20 mM) was −60.3±0.9 mV, the “spike activity elicited by isoguvacine after 0 Mg2+ treatment” value [3] was “essentially abolished” and the “Cl− currents” value (Cl− channels; recorded at +90 mV) was 499±89 pA. The “Cl− currents (inhibition)” value (Cl− channels; sodium salt) was “significantly decreased; also recorded: significant NaGcA inhibition”, the “KA-induced epileptic burst activities / EEG power in adult animals” value ([4]; listed as gluconate) was “less inhibition” and the “KA-induced epileptic burst activities / EEG power in adult animals” value [4] was “modest effect; also recorded: modestly inhibited”. The “KA-induced epileptiform burst activity” value ([5]; 1 μM KA for 2 hrs, 10 mM NaGcA, sodium salt) was “greatly suppressed; also recorded: dramatically suppressed”, the “neurons showing epileptiform activity after CTZ co-treatment” value ([5]; 10 μM CTZ together with 10 mM NaGcA, 3 out of 17 neurons) was 18% and the 4-AP-induced epileptiform activity ([5]; 50 μM 4-AP for 2 hrs, 10 mM NaGcA, sodium salt) was “completely blocked; also recorded: obviously suppressed”. The “CTZ-induced epileptiform burst activity” value ([5]; 10 mM NaGcA, acute application) was “completely blocked”, the “spontaneous epileptiform activity (burst action potentials)” value ([5]; 5-20 mM NaGcA in bath solution (FIG. 1A: 20 mM), sodium salt) was “inhibited spontaneous epileptiform activity; also recorded: stopped immediately” and the “induction of epileptiform activity by CTZ” value ([5]; co-application of 10 μM CTZ and 10 mM NaGcA during induction, sodium salt) was “great reduction; also recorded: lack of burst activity”. For the same compound, the “average frequency and duration of epileptiform bursts” value ([5]; neurons co-treated with CTZ and NaGcA (5 and 10 mM)) was “significantly reduced”.
